This note sets out measurements from patent US20100099634A1, “MACROLIDE COMPOUNDS ENDOWED WITH ANTIINFLAMMATORY ACTIVITY” (Zambon S.p.A, priority 2006, published 2010).

Assay [1] concerns oedema in mouse ear induced with PMA (phorbol myristate acetate). Kind of assay: Acute contact dermatitis: TPA-induced ear oedema in mice. It counts as in vivo. The conditions noted are these: CD1 mice, 500 μg/ear topical in TPDS 30 minutes before 0.01% TPA, ear weight six hours later, vs TPA alone. How it is done: The antiinflammatory activity was evaluated by means of inhibition of the oedema in mouse ear induced with PMA (phorbol myristate acetate). A) Acute Contact Dermatitis Groups of 5 CD1 mice (18-24 g) were used. All the macrolide derivatives were dissolved in Trans-phase Delivery System (TPDS), a carrier containing 10% benzyl alcohol, 40% acetone and 50% isopropanol. 15 microlitres of the compounds (500 μg/ear), dissolved in TPDS, were applied topically to the inner surface of an ear; 30 minutes later, 12 microlitres of a solution of tetradecanoylphorbol acetate (TPA) at a concentration of 0.01% dissolved in acetone were applied to the same area. Six hours later, the animals were sacrificed by inhalation of CO2. The degree of oedema was calculated by subtracting the weight of a specified section of the untreated ear from that of the contralateral treated ear. To determine the degree of remission of the oedema, the weight difference of the groups treated with TPA+macrolides was then compared with the groups treated with TPA alone. The activity of the macrolides was measured by using the modified method of Zunic et al. (1998): MDL (Lysyl) GDP, a non-toxic muramyl dipeptide derivative inhibits cytokine production by activated macrophages and protects mice from phorbol ester- and oxazolone-induced inflammation (J. Invest. Dermatol., 111(1), 77-82).

In assay [2] the test system is Escherichia coli (ATCC 25922). The assay is described as follows: Antibiotic activity by turbidimetric assay of bacterial growth. It counts as cell-based. The conditions noted are these: for IC20: concentration that inhibits growth of E. coli ATCC 25922 by 20%; for IC20 / IC50 / IC80: maximum test concentration 100 μM, mean of at least three incubation times; for IC50: concentration that inhibits growth of E. coli ATCC 25922 by 50%; for IC80: concentration that inhibits growth of E. coli ATCC 25922 by 80%; for activity towards bacterial growth (in words): turbidimetric assay, strains sensitive to erythromycin and telithromycin.

Consider `CCC1OC(=O)C(C)C(=O)C(C)C(OC2OC(C)CC(N(C)C(C)=O)C2O)C(C)(OC)CC(C)C(=O)C(C)C2N(CCCCn3cnc(-c4cccnc4)c3)C(=O)OC12C` (stereo not shown) [Compound 1, 3′-demethyl-3′-acetyltelithromycin], for which the “Oedema (% inhibition)” value in assay [1] is recorded as 81.7%. Moreover, in assay [2], the IC20 – broadly, the concentration needed for an effect of 20% – was above 100 µM; the IC50 (as a rule, the concentration that gives 50% inhibition) was above 100 µM; the IC80 (as a rule, the concentration at which the effect reaches the 80% level) was above 100 µM.

Turning to `CC[C@H]1OC(=O)[C@H](C)C(=O)[C@H](C)[C@@H](O[C@@H]2O[C@H](C)C[C@H](N(C)C(=O)c3ccccc3)[C@H]2O)[C@](C)(OC)C[C@@H](C)C(=O)[C@H](C)[C@H]2N(CCCCn3cnc(-c4cccnc4)c3)C(=O)O[C@]12C` [Compound 2, 3′-demethyl-3′-benzoyltelithromycin], the “Oedema (% inhibition)” value in assay [1] is 81.8%. In addition, in assay [2], the IC20 was above 100 µM, the half-inhibitory concentration (IC50) was above 100 µM and the 80% effect concentration (IC80) is above 100 µM.

Regarding `CC[C@H]1OC(=O)[C@H](C)[C@@H](O[C@H]2C[C@@](C)(OC)[C@@H](O)[C@H](C)O2)[C@H](C)[C@@H](O[C@@H]2O[C@H](C)C[C@H](N(C)C)[C@H]2O)[C@](C)(O)C[C@@H](C)CN(C)[C@H](C)[C@@H](O)[C@]1(C)O` [Azithromycin], in assay [1], the “Oedema (% inhibition)” value was 40%.

On to `CC[C@H]1OC(=O)[C@H](C)[C@@H](O[C@H]2C[C@@](C)(OC)[C@@H](O)[C@H](C)O2)[C@H](C)[C@@H](O[C@@H]2O[C@H](C)C[C@H](N(C)C)[C@H]2O)[C@](C)(O)C[C@@H](C)C(=O)[C@H](C)[C@@H](O)[C@]1(C)O` [Erythromycin], for which, in assay [1], the “Oedema (% inhibition)” value came out at 42%. In assay [2] (Escherichia coli, ATCC25922), the 20% effect concentration (IC20) amounted to 3 µM, the half-maximal inhibitory concentration (IC50) was 7.8 µM and it took 24.3 µM to reach the 80% level (IC80). In assay [2], the “activity towards bacterial growth (in words)” value is “substantial inhibition of the bacterial development”.

As to `CC[C@H]1OC(=O)[C@H](C)C(=O)[C@H](C)[C@@H](O[C@@H]2O[C@H](C)C[C@H](N(C)C)[C@H]2O)[C@](C)(OC)C[C@@H](C)C(=O)[C@H](C)[C@H]2N(CCCCn3cnc(-c4cccnc4)c3)C(=O)O[C@]12C` [Telithromycin], the “Oedema (% inhibition)” value in assay [1] is 79.7%. Besides, in assay [2] (Escherichia coli, ATCC25922), the concentration for an effect of 20% (IC20) came to 2.7 µM; the midpoint of inhibition, the IC50, lay at 5.7 µM; the 80% effect concentration (IC80) was 14.9 µM. Moreover, the “activity towards bacterial growth (in words)” value in assay [2] is listed as “substantial inhibition of the bacterial development”.
